Here are results for 10 compounds from paper PMC6010064, “Discovery of curcumin inspired sulfonamide derivatives as a new class of carbonic anhydrase isoforms I, II, IX, and XII inhibitors” (Journal of Enzyme Inhibition and Medicinal Chemistry, 2017).

Holding throughout (test): stopped-flow CO2 hydrase assay
Assay type in all cases: biochemical

One assay deals with T1, hCA II (Homo sapiens, UniProt P00918).
T1 construct: gene CA2; recombinant, obtained in-house as reported earlier
The source says: stopped-flow CO2 hydrase assay on hCA II

The next assay addresses T2, hCA IX (Homo sapiens, UniProt Q16790).
T2 construct: gene CA9; recombinant, obtained in-house as reported earlier
The source says:
stopped-flow CO2 hydrase assay on hCA IX

In the next assay the target is T3, hCA I (Homo sapiens, UniProt P00915).
T3 construct: gene CA1; recombinant, obtained in-house as reported earlier
T3 sequence (P00915 2-261): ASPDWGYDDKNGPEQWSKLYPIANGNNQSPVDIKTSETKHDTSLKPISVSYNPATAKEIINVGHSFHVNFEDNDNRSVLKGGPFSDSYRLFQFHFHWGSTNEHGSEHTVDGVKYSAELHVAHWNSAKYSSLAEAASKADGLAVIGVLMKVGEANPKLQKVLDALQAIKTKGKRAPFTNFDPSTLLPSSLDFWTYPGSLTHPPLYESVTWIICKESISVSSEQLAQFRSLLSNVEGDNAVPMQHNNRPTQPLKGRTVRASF
The text has this:
stopped-flow CO2 hydrase assay on hCA I

For a further assay, the target named is T4, hCA XII (Homo sapiens, UniProt O43570).
T4 construct: gene CA12; recombinant, obtained in-house as reported earlier
T4 sequence (O43570 25-354): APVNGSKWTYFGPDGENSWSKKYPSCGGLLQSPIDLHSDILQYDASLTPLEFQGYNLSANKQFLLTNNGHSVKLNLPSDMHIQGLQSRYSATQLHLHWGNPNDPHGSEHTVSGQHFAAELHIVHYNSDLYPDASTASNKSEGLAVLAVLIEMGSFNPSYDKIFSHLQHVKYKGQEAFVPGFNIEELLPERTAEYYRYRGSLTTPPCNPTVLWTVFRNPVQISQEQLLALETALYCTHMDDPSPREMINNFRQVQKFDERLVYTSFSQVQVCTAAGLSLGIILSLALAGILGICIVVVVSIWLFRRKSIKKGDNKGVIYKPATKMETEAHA
The source says:
stopped-flow CO2 hydrase assay on hCA XII

[1] abbreviates: pH […] Hepes […], […] Na2SO4, CO2 substrate, […] min preincubation at room temperature.

Where two headings read alike, the source gives them in different places.

Turning to `COc1cc(/C=C/C(=O)/C=C/c2ccc(S(N)(=O)=O)cc2)cc(OC)c1OC` [5h, 4-((1E,4E)-3-oxo-5-(3,4,5-trimethoxyphenyl)penta-1,4-dien-1-yl)benzenesulfonamide], the Ki was determined as 8.8 nM on hCA II, 7.8 nM on hCA IX, 595 nM at hCA I and 25 nM at hCA XII.

Take `COc1ccc(/C=C/C(=O)/C=C/c2ccc(S(N)(=O)=O)cc2)c(OC)c1` [5c, 4-((1E,4E)-5-(2,4-dimethoxyphenyl)-3-oxopenta-1,4-dien-1-yl)benzenesulfonamide]: the Ki on hCA II was 4.7 nM; on hCA IX it was 7.5 nM; on hCA I, 848 nM; at hCA XII, 7.4 nM.

With `COc1ccc(OC)c(/C=C/C(=O)/C=C/c2ccc(S(N)(=O)=O)cc2)c1` [5d, 4-((1E,4E)-5-(2,5-dimethoxyphenyl)-3-oxopenta-1,4-dien-1-yl)benzenesulfonamide], the Ki at hCA II (setting [1]) worked out at 0.89 nM; at hCA IX it was 8.4 nM; on hCA I, 704 nM; on hCA XII it was 8.1 nM.

In the case of `CC(C)Oc1ccc(/C=C/C(=O)/C=C/c2ccc(S(N)(=O)=O)cc2)cc1` [5a, 4-((1E,4E)-5-(4-isopropoxyphenyl)-3-oxopenta-1,4-dien-1-yl)benzenesulfonamide], the Ki at hCA II turned out to be 7.9 nM; on hCA IX it was 2.3 nM; at hCA I, 417 nM; on hCA XII, 6.1 nM.

In the case of `COc1ccc(/C=C/C(=O)/C=C/c2ccc(S(N)(=O)=O)cc2)cc1OC` [5e, 4-((1E,4E)-5-(3,4-dimethoxyphenyl)-3-oxopenta-1,4-dien-1-yl)benzenesulfonamide], the Ki was determined as 0.75 nM on hCA II (setting [1]), 2.3 nM on hCA IX, 295 nM on hCA I and 52.2 nM at hCA XII.

For the compound `COc1ccc(/C=C/C(=O)/C=C/c2ccc(S(N)(=O)=O)cc2)cc1` [5b, 4-((1E,4E)-5-(4-methoxyphenyl)-3-oxopenta-1,4-dien-1-yl)benzenesulfonamide], the Ki at hCA II turned out to be 2.1 nM; at hCA IX it was 8.6 nM; on hCA I, 286 nM; at hCA XII, 6.3 nM.

Take `NS(=O)(=O)c1ccc(/C=C/C(=O)/C=C/c2ccc(Cl)cc2)cc1` [5i, 4-((1E,4E)-5-(4-chlorophenyl)-3-oxopenta-1,4-dien-1-yl)benzenesulfonamide]: the Ki on hCA II was found to be 8.1 nM; at hCA IX it was 87.3 nM; at hCA I, 373 nM; at hCA XII it was 31.1 nM.

Consider `COc1ccc(/C=C/C(=O)/C=C/c2ccc(S(N)(=O)=O)cc2)c(OC)c1OC` [5f, 4-((1E,4E)-3-oxo-5-(2,3,4-trimethoxyphenyl)penta-1,4-dien-1-yl)benzenesulfonamide], for which the Ki was found to be 3 nM on hCA II, 2.4 nM on hCA IX, 192 nM at hCA I (setting [1]) and 71.8 nM at hCA XII.

Regarding `COc1cc(OC)c(/C=C/C(=O)/C=C/c2ccc(S(N)(=O)=O)cc2)c(OC)c1` [5g, 4-((1E,4E)-3-oxo-5-(2,4,6-trimethoxyphenyl)penta-1,4-dien-1-yl)benzenesulfonamide], the Ki was 0.87 nM on hCA II, 2.4 nM at hCA IX, 904 nM on hCA I and 7.4 nM at hCA XII.

On to `COc1ccc(/C=C/C(=O)/C=C/c2ccc(S(N)(=O)=O)cc2)c(F)c1` [5j, 4-((1E,4E)-5-(2-fluoro-4-methoxyphenyl)-3-oxopenta-1,4-dien-1-yl)benzenesulfonamide], for which the Ki on hCA II worked out at 8.2 nM; on hCA IX it was 61 nM; at hCA I it was 246 nM; on hCA XII, 68 nM.

Broadly, the Ki is the equilibrium dissociation constant of an inhibitor or competing ligand from its target. Low values mean tighter binding, high ones weaker binding.
